Legend:
cyclooxygenase-2 = target: T1, cyclooxygenase-2 (Mus musculus, UniProt Q05769); test: Inhibitive effects against cyclooxygenase-2 using Raw 264.7 (interferon/LPS-induced PGE2, EIA); format: cell-based; conditions: Raw 264.7 cells, interferon + LPS, 18 hours
T1 construct: After seeding 2×10^6 cells of Raw 264.7 cell (obtained from Korean cell line bank, Deposit No. 40071) into each of 12-well plates; endogenous in cells; host or cells: Raw 264.7 (Korean cell line bank, Deposit No. 40071), aspirin-pretreated, induced with interferon and LPS
T1 sequence (Q05769 18-604): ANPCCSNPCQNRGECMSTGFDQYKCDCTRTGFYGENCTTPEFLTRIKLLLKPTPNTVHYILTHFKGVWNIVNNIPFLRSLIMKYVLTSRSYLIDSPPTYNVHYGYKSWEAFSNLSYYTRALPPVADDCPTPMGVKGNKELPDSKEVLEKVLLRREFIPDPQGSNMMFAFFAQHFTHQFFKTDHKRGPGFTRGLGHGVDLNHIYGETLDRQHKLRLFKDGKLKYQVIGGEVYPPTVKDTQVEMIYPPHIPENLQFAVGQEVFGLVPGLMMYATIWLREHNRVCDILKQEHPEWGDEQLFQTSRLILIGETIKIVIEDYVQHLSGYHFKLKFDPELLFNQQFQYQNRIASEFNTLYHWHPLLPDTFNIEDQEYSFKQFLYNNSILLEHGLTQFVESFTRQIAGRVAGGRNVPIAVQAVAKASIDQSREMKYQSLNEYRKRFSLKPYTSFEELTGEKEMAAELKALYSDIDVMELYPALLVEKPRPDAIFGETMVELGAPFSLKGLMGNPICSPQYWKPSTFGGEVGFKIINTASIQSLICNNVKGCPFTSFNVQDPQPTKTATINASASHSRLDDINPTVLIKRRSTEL
Description: In addition, the samples were treated with 100 units/ml of interferon ? and 100 ng/ml of lipopolysaccharide(LPS), and cultured for 18 hours. Then, the media was transferred to other test tubes and PGE 2 was quantitated by using EIA kit (Cayman Chemicals).
The % inhibition was calculated as follows, and the results were described in Table 1.
% inhibition={(PGE2 concentration compensated with interferon ? and LPS-PGE2 concentration compensated with analysis sample)/(PGE2 concentration compensated with interferon ? and LPS)}×100

cyclooxygenase-1 = target: T2, cyclooxygenase-1 (Homo sapiens, UniProt P23219); test: Inhibitive effects against cyclooxygenase-1 using U-937 (PGE2 quantitation); format: cell-based; conditions: U-937 cells, arachidonic acid substrate
T2 construct: A cultured U-937 (humane lymphoma cell with Deposit No. 21593, obtained from Korean cell line bank) was centrifuged to collect the pellet; endogenous in cells; host or cells: U-937 (Korean cell line bank, Deposit No. 21593)
T2 sequence (P23219 24-599): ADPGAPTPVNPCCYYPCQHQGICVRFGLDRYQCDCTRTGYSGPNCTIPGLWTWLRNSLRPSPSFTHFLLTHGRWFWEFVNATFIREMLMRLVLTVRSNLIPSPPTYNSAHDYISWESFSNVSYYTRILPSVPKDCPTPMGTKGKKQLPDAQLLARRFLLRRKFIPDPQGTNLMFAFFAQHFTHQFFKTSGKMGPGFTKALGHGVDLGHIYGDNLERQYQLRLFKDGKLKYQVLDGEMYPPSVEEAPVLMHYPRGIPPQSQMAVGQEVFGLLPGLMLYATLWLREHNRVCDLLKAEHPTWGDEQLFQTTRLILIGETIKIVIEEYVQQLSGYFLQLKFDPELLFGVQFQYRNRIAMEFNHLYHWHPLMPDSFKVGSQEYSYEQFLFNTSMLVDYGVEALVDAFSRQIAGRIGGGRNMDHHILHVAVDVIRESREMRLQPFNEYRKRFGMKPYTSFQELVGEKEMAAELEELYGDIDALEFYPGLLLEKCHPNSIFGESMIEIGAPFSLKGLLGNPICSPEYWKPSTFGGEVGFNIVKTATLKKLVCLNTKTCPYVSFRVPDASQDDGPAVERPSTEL
Description: Then, the pellet was diluted with 1×HBSS(Hank's balanced salt solution) at the concentration of 1×10^6 cells/ml, and 1 ml of them was transferred into each of 12-well plates.
Arachidonic acid as a substrate was dissolved in ethanol to prepare a stock solution with a concentration of 10 mM, followed by diluting with 1×HBSS to prepare the solution of 1 mM. 10 μl of 1 mM Arachidonic acid solution was added to each of the treated wells and the mixture was cultured at 37° C. in CO2 incubator for 30 minutes. The cell solution of each well was collected in the centrifuge tube and centrifuged at 4° C., for 5 minutes at 10,000 rpm. As PGE2 existed in the supernatant separated from collected cell, the concentration of PGE2 was quantitated by using monoclonal kit from Cayman Chemicals, and the concentration of samples and DMSO vehicle were compared to estimate the inhibition ratio (%) of each compound against cyclooxygenase-1. Ultimately, the inhibition effect against the cyclooxygenase-1 enzyme was obtained from the result.

| Structure (SMILES) | Inhibitory effects of cyclooxygenase (COX): COX-2 (30 nM) (cyclooxygenase-2) [% inhibition] | Inhibitory effects of cyclooxygenase (COX): COX-1 (10 μM) (cyclooxygenase-1) [% inhibition] |
| --- | --- | --- |
| Cc1snc(-c2ccccc2)c1-c1ccc(S(C)(=O)=O)cc1 [Example 6, 4-(4-methanesulfonylphenyl)-5-methyl-3-phenyl-isothiazole] | 69.0 | 56.4 |
| COc1ccc(-c2nsc(C)c2-c2ccc(S(N)(=O)=O)cc2)cc1 [Example 4, 4-[3-(4-methoxyphenyl)-5-methyl-isothiazole-4-yl]-benzenesulfonamide] | 67.7 | 79.5 |
| Cc1snc(-c2ccc(Br)cc2)c1-c1ccc(S(N)(=O)=O)cc1 [Example 3, 4-[3-(4-bromophenyl)-5-methyl-isothiazole-4-yl]-benzenesulfonamide] | 58.5 | 38.8 |
| Cc1snc(-c2ccccc2)c1-c1ccc(S(N)(=O)=O)cc1 [Example 2, 4-(5-methyl-3-phenyl-isothiazole-4-yl)-benzenesulfonamide] | 60.2 | 35.5 |
| Cc1snc(-c2ccc(F)cc2)c1-c1ccc(S(N)(=O)=O)cc1 [Example 5, 4-[3-(4-fluorophenyl)-5-methyl-isothiazole-4-yl]-benzenesulfonamide] | 72.3 | 77.8 |
| Cc1snc(-c2ccc(S(C)(=O)=O)cc2)c1-c1ccc(F)cc1 [Example 1, 4-(4-fluorophenyl)-3-(4-methanesulfonyl)-5-methyl-isothiazole] | 63.7 | 29.8 |
| Cc1snc(-c2ccc(F)cc2)c1-c1ccc(S(C)(=O)=O)cc1 [Example 9, 3-(4-fluorophenyl)-4-(4-methanesulfonyl)-5-methyl-isothiazole] | 65.1 | 67.2 |
| Cc1snc(-c2ccc(Br)cc2)c1-c1ccc(S(C)(=O)=O)cc1 [Example 7, 3-(4-bromophenyl)-4-(4-methanesulfonylphenyl)-5-methyl-isothiazole] | 65.6 | 45.7 |
| COc1ccc(-c2nsc(C)c2-c2ccc(S(C)(=O)=O)cc2)cc1 [Example 8, 3-(4-methoxyphenyl)-4-(4-methanesulfonylphenyl)-5-methyl-isothiazole] | 76.4 | 80.1 |

Source: patent publication US6967213B2, “Isothiazole derivatives, process for the preparation thereof, and pharmaceutical composition including the same” (CJ Corp., priority 2003, dated 2005)
